Data reported in patent US9833497B2, “Human originated EGF domain proteins and use of the same” (CHENGDU SOURCEBIO LIMITED-LIABILITY COMPANY, priority 2013, dated 2017).

Tests used:
Type in all cases: cell-based
[1] = test system: E. coli DH5α; experiment: Antibacterial activity: MIC and growth curve against E. coli DH5α in 96-well plate; settings: minimal inhibitory concentration against E. coli DH5α; 96-well plate, 5×10^5 CFU/mL, 37° C., judged after 8 h
In short: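 Log-phase bacteria (OD600 ~0.5) resuspended in LB at 5×10^5 CFU/mL, exposed to recombinant protein at 50, 25, 12.5 μg/mL final in triplicate, 37 °C shaking at 175 rpm. OD600 read every 30 min; MIC is lowest concentration showing no growth.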

[2] = test system: E. coli BL21; experiment: MIC against Gram-negative bacteria: E. coli BL21
In short: (§1)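 Broth microdilution, LB medium, final inoculum 5×10^5 CFU/mL from McFarland 0.5 cultures. Recombinant human EGF domain proteins tested in two-fold steps, n=3. MIC: lowest concentration, no growth.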

[3] = test system: Pseudomonas aeruginosa; experiment: MIC against Gram-negative bacteria: Pseudomonas aeruginosa
In short: as §1

[4] = test system: Klebsiella pneumonia; experiment: MIC against Gram-negative bacteria: Klebsiella pneumonia
In short: as §1

[5] = test system: Enterobacter cloacae; experiment: MIC against Gram-negative bacteria: Enterobacter cloacae
In short: as §1

[6] = test system: Aeromonas hydrophila; experiment: MIC against Gram-negative bacteria: Aeromonas hydrophila
In short: as §1

[7] = test system: Citrobacter diversus; experiment: MIC against Gram-negative bacteria: Citrobacter diversus
In short: as §1

[8] = test system: Moraxella catarrhalis; experiment: MIC against Gram-negative bacteria: Moraxella catarrhalis
In short: as §1

[9] = test system: Proteus mirabilis; experiment: MIC against Gram-negative bacteria: Proteus mirabilis
In short: as §1

[10] = test system: Proteus vulgaris; experiment: MIC against Gram-negative bacteria: Proteus vulgaris
In short: as §1

[11] = test system: Serratia marcescens; experiment: MIC against Gram-negative bacteria: Serratia marcescens
In short: as §1

[12] = 96-well plate, 5×10^5 CFU/mL, 37° C., 10 h
[13] = E. coli BL21, 96-well plate, 5×10^5 CFU/mL, 37° C., 10 h
[14] = Pseudomonas aeruginosa, 96-well plate, 5×10^5 CFU/mL, 37° C., 10 h
[15] = Klebsiella pneumonia, 96-well plate, 5×10^5 CFU/mL, 37° C., 10 h
[16] = Enterobacter cloacae, 96-well plate, 5×10^5 CFU/mL, 37° C., 10 h
[17] = Aeromonas hydrophila, 96-well plate, 5×10^5 CFU/mL, 37° C., 10 h
[18] = Citrobacter diversus, 96-well plate, 5×10^5 CFU/mL, 37° C., 10 h
[19] = Moraxella catarrhalis, 96-well plate, 5×10^5 CFU/mL, 37° C., 10 h
[20] = Proteus mirabilis, 96-well plate, 5×10^5 CFU/mL, 37° C., 10 h
[21] = Proteus vulgaris, 96-well plate, 5×10^5 CFU/mL, 37° C., 10 h
[22] = Serratia marcescens, 96-well plate, 5×10^5 CFU/mL, 37° C., 10 h
[23] = E. coli BL21, 10 h cultivation at 37° C.
[24] = P. aeruginosa, 10 h cultivation at 37° C.
[25] = K. pneumonia, 10 h cultivation at 37° C.
[26] = E. cloacae, 10 h cultivation at 37° C.
[27] = A. hydrophila, 10 h cultivation at 37° C.
[28] = C. diversus, 10 h cultivation at 37° C.
[29] = M. catarrhalis, 10 h cultivation at 37° C.
[30] = P. mirabilis, 10 h cultivation at 37° C.
[31] = P. vulgaris, 10 h cultivation at 37° C.
[32] = S. marcescens, 10 h cultivation at 37° C.
[33] = E. coli BL21, 5×10^5 CFU/mL, 10 h cultivation at 37° C.
[34] = Pseudomonas aeruginosa, 5×10^5 CFU/mL, 10 h cultivation at 37° C.
[35] = Klebsiella pneumonia, 5×10^5 CFU/mL, 10 h cultivation at 37° C.
[36] = Enterobacter cloacae, 5×10^5 CFU/mL, 10 h cultivation at 37° C.
[37] = Aeromonas hydrophila, 5×10^5 CFU/mL, 10 h cultivation at 37° C.
[38] = Citrobacter diversus, 5×10^5 CFU/mL, 10 h cultivation at 37° C.
[39] = Moraxella catarrhalis, 5×10^5 CFU/mL, 10 h cultivation at 37° C.
[40] = Proteus mirabilis, 5×10^5 CFU/mL, 10 h cultivation at 37° C.
[41] = Proteus vulgaris, 5×10^5 CFU/mL, 10 h cultivation at 37° C.
[42] = Serratia marcescens, 5×10^5 CFU/mL, 10 h cultivation at 37° C.
[43] = E. coli BL21, 10 h cultivation at 37° C., 5×10^5 CFU/mL
[44] = P. aeruginosa, 10 h cultivation at 37° C., 5×10^5 CFU/mL
[45] = K. pneumonia, 10 h cultivation at 37° C., 5×10^5 CFU/mL
[46] = E. cloacae, 10 h cultivation at 37° C., 5×10^5 CFU/mL
[47] = A. hydrophila, 10 h cultivation at 37° C., 5×10^5 CFU/mL
[48] = C. diversus, 10 h cultivation at 37° C., 5×10^5 CFU/mL
[49] = M. catarrhalis, 10 h cultivation at 37° C., 5×10^5 CFU/mL
[50] = P. mirabilis, 10 h cultivation at 37° C., 5×10^5 CFU/mL
[51] = P. vulgaris, 10 h cultivation at 37° C., 5×10^5 CFU/mL
[52] = S. marcescens, 10 h cultivation at 37° C., 5×10^5 CFU/mL

PRT577 (CACHPSRARGPTCNEFTGQCHCRAGFGGRTCSECQELHWGDPGLQCHA; listed as Homo sapiens)
25 µg/mL: MIC against E. coli BL21 [2, 12] | MIC against K. pneumonia [4, 12] | MIC against A. hydrophila [6, 12]
50 µg/mL: MIC against P. aeruginosa [3, 12] | MIC against C. diversus [7, 12] | MIC against P. mirabilis [9, 12] | MIC against S. marcescens [11, 12]
12.5 µg/mL: MIC [1] | MIC against E. cloacae [5, 12] | MIC against M. catarrhalis [8, 12] | MIC against P. vulgaris [10, 12]

PRT1343 (VFHECFFNPCHNSGTCQQLGRGYVCLCPLGYTGLKCE; listed as Homo sapiens)
25 µg/mL: MIC against E. coli BL21 [2, 13] | MIC against K. pneumonia [4, 15] | MIC against E. cloacae [5, 16] | MIC against M. catarrhalis [8, 19] | MIC against P. vulgaris [10, 21]
12.5 µg/mL: MIC [1] | MIC against A. hydrophila [6, 17] | MIC against P. mirabilis [9, 20]
50 µg/mL: MIC against P. aeruginosa [3, 14] | MIC against C. diversus [7, 18] | MIC against S. marcescens [11, 22]

PRT1011 (RAPSCGFHHCHHGGLCLPSPKPGFPPRCACLSGYGGPDCL; listed as Homo sapiens)
25 µg/mL: MIC [7, 28] | MIC [9, 30] | MIC [11, 32]
12.5 µg/mL: MIC [1] | MIC [3, 24] | MIC [5, 26] | MIC [8, 29]
50 µg/mL: MIC [2, 23] | MIC [4, 25] | MIC [6, 27] | MIC [10, 31]

PRT1339 (EINNCLLPSAGGCHDNASCLYVGPGQNECECKKGFRGNGIDCE; listed as Homo sapiens)
12.5 µg/mL: MIC against E. coli BL21 [2, 13] | MIC against P. aeruginosa [3, 14] | MIC against E. cloacae [5, 16] | MIC against M. catarrhalis [8, 19]
50 µg/mL: MIC against A. hydrophila [6, 17] | MIC against P. vulgaris [10, 21]
25 µg/mL: MIC [1] | MIC against K. pneumonia [4, 15] | MIC against C. diversus [7, 18] | MIC against P. mirabilis [9, 20] | MIC against S. marcescens [11, 22]

PRT634 (DIDECQHRHLCAHGQCRNTEGSFQCVCDQGYRASGLGDHCE; listed as Homo sapiens)
25 µg/mL: MIC E. coli BL21 [2, 12] | MIC K. pneumonia [4, 12] | MIC A. hydrophila [6, 12] | MIC M. catarrhalis [8, 12] | MIC P. mirabilis [9, 12] | MIC S. marcescens [11, 12]
50 µg/mL: MIC P. aeruginosa [3, 12]
12.5 µg/mL: MIC [1] | MIC E. cloacae [5, 12] | MIC C. diversus [7, 12] | MIC P. vulgaris [10, 12]

PRT1418 (IAHYLDRVVKEGCPGLCNGNGRCTLDLNGWHCVCQLGWRGAGCD; listed as Homo sapiens)
50 µg/mL: MIC against K. pneumonia [4, 35] | MIC against M. catarrhalis [8, 39] | MIC against P. vulgaris [10, 41]
12.5 µg/mL: MIC against E. coli BL21 [2, 33] | MIC against C. diversus [7, 38] | MIC against P. mirabilis [9, 40]
25 µg/mL: MIC [1] | MIC against P. aeruginosa [3, 34] | MIC against E. cloacae [5, 36] | MIC against A. hydrophila [6, 37] | MIC against S. marcescens [11, 42]

PRT748 (YTASCQPWSCSGHGECVEIINNYTCNCDVGYYGPQCQ; listed as Homo sapiens)
12.5 µg/mL: MIC (μg/mL) P. aeruginosa [3, 44] | MIC (μg/mL) A. hydrophila [6, 47] | MIC (μg/mL) M. catarrhalis [8, 49] | MIC (μg/mL) P. vulgaris [10, 51]
25 µg/mL: MIC (μg/mL) E. coli BL21 [2, 43] | MIC (μg/mL) K. pneumonia [4, 45] | MIC (μg/mL) S. marcescens [11, 52]
50 µg/mL: MIC [1] | MIC (μg/mL) E. cloacae [5, 46] | MIC (μg/mL) C. diversus [7, 48] | MIC (μg/mL) P. mirabilis [9, 50]

PRT122 (CAPCQGNGVPVLKGSRCDCICPVGSQGLACE; listed as Homo sapiens)
25 µg/mL: MIC (μg/mL) M. catarrhalis [8, 19] | MIC (μg/mL) P. vulgaris [10, 21]
12.5 µg/mL: MIC [1] | MIC (μg/mL) E. coli BL21 [2, 13] | MIC (μg/mL) P. aeruginosa [3, 14] | MIC (μg/mL) K. pneumonia [4, 15] | MIC (μg/mL) E. cloacae [5, 16] | MIC (μg/mL) A. hydrophila [6, 17] | MIC (μg/mL) C. diversus [7, 18] | MIC (μg/mL) P. mirabilis [9, 20] | MIC (μg/mL) S. marcescens [11, 22]

PRT34 (ACHPGFYGPDCKLRCSCNNGEMCDRFQGCLCSPGWQGLQCE; listed as Homo sapiens)
12.5 µg/mL: MIC (μg/mL) K. pneumonia [4, 15] | MIC (μg/mL) E. cloacae [5, 16] | MIC (μg/mL) M. catarrhalis [8, 19] | MIC (μg/mL) P. mirabilis [9, 20] | MIC (μg/mL) S. marcescens [11, 22]
100 µg/mL: MIC [1]
25 µg/mL: MIC (μg/mL) E. coli BL21 [2, 13] | MIC (μg/mL) P. aeruginosa [3, 14] | MIC (μg/mL) A. hydrophila [6, 17] | MIC (μg/mL) C. diversus [7, 18] | MIC (μg/mL) P. vulgaris [10, 21]

PRT815 (YGPSCQTRCSCANDGHCHPATGHCSCAPGWTGFSCQ; listed as Homo sapiens)
12.5 µg/mL: MIC (μg/mL) E. coli BL21 [2, 43] | MIC (μg/mL) P. aeruginosa [3, 44] | MIC (μg/mL) K. pneumonia [4, 45] | MIC (μg/mL) A. hydrophila [6, 47] | MIC (μg/mL) P. vulgaris [10, 51]
50 µg/mL: MIC (μg/mL) M. catarrhalis [8, 49]
25 µg/mL: MIC [1] | MIC (μg/mL) E. cloacae [5, 46] | MIC (μg/mL) C. diversus [7, 48] | MIC (μg/mL) P. mirabilis [9, 50] | MIC (μg/mL) S. marcescens [11, 52]

PRT1411 (SVDNCPSNCYGNGDCISGTCHCFLGFLGPDCG; listed as Homo sapiens)
25 µg/mL: MIC against E. coli BL21 [2, 33] | MIC against K. pneumonia [4, 35] | MIC against P. vulgaris [10, 41]
12.5 µg/mL: MIC [1] | MIC against P. aeruginosa [3, 34] | MIC against E. cloacae [5, 36] | MIC against A. hydrophila [6, 37] | MIC against C. diversus [7, 38] | MIC against M. catarrhalis [8, 39] | MIC against P. mirabilis [9, 40] | MIC against S. marcescens [11, 42]

PRT1033 (LYVPCAPSPCVNGGTCRQTGDFTFECNCLPETVRRGTE; listed as Homo sapiens)
100 µg/mL: MIC [8, 29]
12.5 µg/mL: MIC [2, 23] | MIC [6, 27]
25 µg/mL: MIC [4, 25] | MIC [10, 31]
50 µg/mL: MIC [1] | MIC [3, 24] | MIC [5, 26] | MIC [7, 28] | MIC [9, 30] | MIC [11, 32]

PRT146 (DRDECSFQPGPCSTLVQCFNTQGSFYCGACPTGWQGNGYICE; listed as Homo sapiens)
50 µg/mL: MIC (μg/mL) E. coli BL21 [2, 43] | MIC (μg/mL) K. pneumonia [4, 45]
25 µg/mL: MIC (μg/mL) C. diversus [7, 48] | MIC (μg/mL) P. mirabilis [9, 50] | MIC (μg/mL) S. marcescens [11, 52]
12.5 µg/mL: MIC [1] | MIC (μg/mL) P. aeruginosa [3, 44] | MIC (μg/mL) E. cloacae [5, 46] | MIC (μg/mL) A. hydrophila [6, 47] | MIC (μg/mL) M. catarrhalis [8, 49] | MIC (μg/mL) P. vulgaris [10, 51]
